Data taken from ChEMBL document CHEMBL1147639, “Quinolines as extremely potent and selective PDE5 inhibitors as potential agents for treatment of erectile dysfunction” (Bioorg Med Chem Lett, 2004).

Columns and labels:
[1] = Relative inhibition of rat kidney PDE4 and human platelet PDE 5
[2] = Relative inhibition of bovine retina PDE6 and human platelet PDE 5
[3] = biological target: cGMP-specific 3',5'-cyclic phosphodiesterase (Homo sapiens, UniProt O76074); assay: Inhibition of phosphodiesterase 5 from human platelets
[4] = Relative inhibition of bovine heart PDE1 and human platelet PDE5
[5] = Relative inhibition of rat kidney PDE2 and human platelet PDE 5
[6] = biological target: Phosphodiesterase 6; assay: Inhibition of phosphodiesterase 6; assay type: protein assay
[7] = biological target: Phosphodiesterase 1 (Bos taurus, UniProt Q01061+P14100); assay: Inhibition of phosphodiesterase 1 of bovine heart; assay type: protein assay
[8] = biological target: Phosphodiesterase 3 (Homo sapiens, UniProt Q14432+Q13370); assay: Inhibitory activity of compound against phosphodiesterase 3 was tested; assay type: protein assay
[9] = Inhibition of phosphodiesterase 4
[10] = biological target: cGMP-dependent 3',5'-cyclic phosphodiesterase (Rattus norvegicus) (UniProt Q01062); assay: Inhibition of phosphodiesterase 2
cGMP-dependent 3',5'-cyclic phosphodiesterase (Rattus norvegicus), sequence (Q01062 whole entry, looked up): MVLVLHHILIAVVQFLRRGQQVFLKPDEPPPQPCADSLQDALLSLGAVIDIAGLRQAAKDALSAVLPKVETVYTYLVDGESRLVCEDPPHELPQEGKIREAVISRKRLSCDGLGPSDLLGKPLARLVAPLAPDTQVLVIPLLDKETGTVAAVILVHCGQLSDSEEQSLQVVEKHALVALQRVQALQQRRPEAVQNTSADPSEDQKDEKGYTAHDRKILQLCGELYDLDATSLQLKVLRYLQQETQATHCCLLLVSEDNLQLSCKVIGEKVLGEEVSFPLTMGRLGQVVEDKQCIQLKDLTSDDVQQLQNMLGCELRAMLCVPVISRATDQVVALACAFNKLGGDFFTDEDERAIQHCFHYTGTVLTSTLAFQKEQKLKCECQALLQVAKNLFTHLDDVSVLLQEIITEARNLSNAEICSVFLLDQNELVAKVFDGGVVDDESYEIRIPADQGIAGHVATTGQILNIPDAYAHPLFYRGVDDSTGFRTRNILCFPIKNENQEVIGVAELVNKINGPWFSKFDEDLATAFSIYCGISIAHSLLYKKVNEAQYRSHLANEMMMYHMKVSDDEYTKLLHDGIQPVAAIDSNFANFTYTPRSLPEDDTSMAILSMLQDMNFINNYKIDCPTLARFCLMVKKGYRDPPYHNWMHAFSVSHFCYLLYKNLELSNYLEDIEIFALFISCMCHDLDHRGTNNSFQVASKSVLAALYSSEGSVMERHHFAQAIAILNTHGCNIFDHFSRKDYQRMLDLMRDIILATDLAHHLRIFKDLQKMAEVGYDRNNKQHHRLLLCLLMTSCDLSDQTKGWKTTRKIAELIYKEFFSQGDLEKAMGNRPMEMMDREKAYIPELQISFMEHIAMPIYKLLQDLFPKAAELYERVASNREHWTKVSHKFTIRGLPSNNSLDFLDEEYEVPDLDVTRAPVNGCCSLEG

SMILES	Selectivity ratio [1]	Selectivity ratio [2]	IC50 [3] [nM]	Selectivity ratio [4]	Selectivity ratio [5]	IC50 [6] [nM]	IC50 [7] [nM]	IC50 [8] [nM]	IC50 [9] [nM]	IC50 [10] [nM]
CCc1cc(C#N)cc2c(NCc3ccc(OC)c(Cl)c3)ccnc12	2200	40	–	–	–	–	–	–	–	–
CCOC(=O)c1cnc2ccc(C(F)(F)F)cc2c1NCc1ccc(OC)c(Cl)c1	247	75	73	> 680	> 680	–	–	–	–	–
COc1ccc(CNc2ccnc3ccc(C#N)cc23)cc1Cl	3500	29	1.4	6400	> 100000	–	–	–	–	–
CCc1cc(C#N)cc2c(NCc3ccc(OC)c(Cl)c3)c(CO)cnc12	–	7800	0.05	> 1e+06	> 100000	–	–	–	–	–
COc1ccc(CNc2c(CO)cnc3ccc(C#N)cc23)cc1Cl	> 100000	23	0.48	> 100000	8600	–	–	–	–	–
COc1ccc(CNc2c(C(=O)NCc3ccccn3)cnc3ccc(C#N)cc23)cc1Cl	3100	64	1.3	> 100000	> 100000	–	–	–	–	–
CCOC(=O)c1cnc2cc(C(F)(F)F)ccc2c1NCc1ccc(OC)c(Cl)c1	> 310	125	160	> 310	> 310	20000	> 50000	> 50000	> 50000	> 50000
CCOC(=O)c1cnc2ccc(C#N)cc2c1NCc1ccc(OC)c(Cl)c1	3800	15	–	–	> 100000	–	–	–	–	–
CCc1cc(C#N)cc2c(NCc3ccc(OC)c(Cl)c3)c(C(=O)NCc3ccccn3)cnc12	4500	82	0.55	–	–	–	–	–	–	–
CCOC(=O)c1cnc2c(CC)cc(C#N)cc2c1NCc1ccc(OC)c(Cl)c1	> 100000	110	0.6	> 100000	> 100000	–	–	–	–	–
